Seven compounds from patent publication US11242337B2, “Compounds useful for treating gastrointestinal tract disorders” (Ardelyx, Inc., priority 2017, dated 2022) can be followed below.

The test deals with T1, NHE3 (Homo sapiens, UniProt P48764).
T1 construct: expressed in transfected cells
T1 sequence (P48764 26-834): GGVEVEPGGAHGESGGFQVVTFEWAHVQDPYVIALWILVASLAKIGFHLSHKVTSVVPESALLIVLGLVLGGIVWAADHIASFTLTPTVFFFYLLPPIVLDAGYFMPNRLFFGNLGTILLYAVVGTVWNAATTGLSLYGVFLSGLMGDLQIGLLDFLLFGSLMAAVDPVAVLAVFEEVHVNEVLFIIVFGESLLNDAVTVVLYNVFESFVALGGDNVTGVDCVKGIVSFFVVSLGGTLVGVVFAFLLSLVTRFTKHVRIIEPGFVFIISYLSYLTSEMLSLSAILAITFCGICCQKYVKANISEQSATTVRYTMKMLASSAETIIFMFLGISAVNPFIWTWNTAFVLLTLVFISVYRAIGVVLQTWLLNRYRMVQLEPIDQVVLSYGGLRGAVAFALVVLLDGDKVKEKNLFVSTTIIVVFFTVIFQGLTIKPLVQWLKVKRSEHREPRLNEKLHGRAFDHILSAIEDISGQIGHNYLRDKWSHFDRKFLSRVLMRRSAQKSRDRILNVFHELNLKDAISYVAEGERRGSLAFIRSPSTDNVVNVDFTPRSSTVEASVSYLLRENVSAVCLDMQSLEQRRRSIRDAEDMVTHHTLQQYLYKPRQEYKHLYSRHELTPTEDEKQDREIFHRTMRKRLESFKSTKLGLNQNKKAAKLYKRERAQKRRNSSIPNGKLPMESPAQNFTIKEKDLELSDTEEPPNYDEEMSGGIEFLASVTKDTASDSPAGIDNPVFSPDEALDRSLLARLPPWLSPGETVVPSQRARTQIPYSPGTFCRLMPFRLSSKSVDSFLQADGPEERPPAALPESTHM
T1 sequence (Q99653 2-195 partner limits assumed): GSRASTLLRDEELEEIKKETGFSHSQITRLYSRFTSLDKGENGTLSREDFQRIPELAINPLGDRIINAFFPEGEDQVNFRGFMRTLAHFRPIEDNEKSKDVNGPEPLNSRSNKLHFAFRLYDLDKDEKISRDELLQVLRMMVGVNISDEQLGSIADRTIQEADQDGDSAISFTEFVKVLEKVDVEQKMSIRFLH
The test is described as follows: Cell-based assay of NHE-3 activity (pre-incubation inhibition), human. To be noted: human Preincubation; for pIC50: 0-30 μM test compound. An outline of the steps: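 PS120 fibroblasts stably expressing human NHE3 and NHERF2, loaded 30 min at 37 °C with 5 μM BCECF-AM in NH4Cl buffer, then acidified 10 min at room temperature in Na+-free buffer with 0–30 μM compound. Initial rate of BCECF fluorescence ratio change (FLIPR) per minute taken as Na+/H+ activity.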

As to `Cc1cc(Cl)cc2c1C[C@H](N1CCC[C@@H](N(C)C)C1)[C@H]2Oc1ccc(S(=O)(=O)NCCOCCOCCNC(=O)NCCCCNC(=O)NCCOCCOCCNS(=O)(=O)c2ccc(O[C@H]3c4cc(Cl)cc(C)c4C[C@@H]3N3CCC[C@@H](N(C)C)C3)c(F)c2)cc1F` [Example 30, 3-[2-(2-[2-[(4-[[(1S,2S)-6-Chloro-2-[(3R)-3-(dimethylamino)piperidin-1-yl]-4-methyl-2,3-dihydro-1H-inden-1-yl]oxy]-3-fluorobenzene)sulfonamido]ethoxy]ethoxy)ethyl]-1-[4-([[2-(2-[2-[(4-[[(1S,2S)-6-chloro-2-[(3R)-3-(dimethylamino)piperidin-1-yl]-4-methyl-2,3-dihydro-1H-inden-1-yl]oxy]-3-fluorobenzene)sulfonamido]ethoxy]ethoxy)ethyl]carbamoyl]amino)butyl]urea; bis(trifluoroacetic acid)], the “% inhibition” value is listed as “C (>70%)” and the pIC50 result is “C (NHE3 pIC50 > 7)”.
Taken in the same sequence, the figures for `Cc1cc(S(=O)(=O)N[C@@H]2CCN(CCOCCNC(=O)NCCCCNC(=O)NCCOCCN3CC[C@@H](NS(=O)(=O)c4ccc(O[C@H]5c6cc(Cl)cc(Cl)c6C[C@@H]5N(C)C)c(C)c4)C3)C2)ccc1O[C@H]1c2cc(Cl)cc(Cl)c2C[C@@H]1N(C)C` [Example 53, 3-(2-[2-[(3R)-3-[(4-[[(1S,2S)-4,6-Dichloro-2-(dimethylamino)-2,3-dihydro-1H-inden-1-yl]oxy]-3-methylbenzene)sulfonamido]pyrrolidin-1 yl]ethoxy]ethyl)-1-(4-[[(2-[2-[(3R)-3-[(4-[[(1S,2S)-4,6-dichloro-2-(dimethylamino)-2,3-dihydro-1H-inden-1-yl]oxy]-3-methylbenzene)sulfonamido]pyrrolidin-1-yl]ethoxy]ethyl)carbamoyl]amino]butyl)urea] were “C (>70%)” and “C (NHE3 pIC50 > 7)”.
Taken in the same sequence, the figures for `Cc1cc(O[C@H]2c3cc(Cl)cc(Cl)c3C[C@@H]2N(C)C)c(F)cc1S(=O)(=O)NCCOCCOCCNC(=O)NCCCCNC(=O)NCCOCCOCCNS(=O)(=O)c1cc(F)c(O[C@H]2c3cc(Cl)cc(Cl)c3C[C@@H]2N(C)C)cc1C` [Example 88, 3-[2-(2-[2-[(4-[[(1S,2S)-4,6-Dichloro-2-(dimethylamino)-2,3-dihydro-1H-inden-1-yl]oxy]-5-fluoro-2-methylbenzene)sulfonamido]ethoxy]ethoxy)ethyl]-1-[4-([[2-(2-[2-[(4-[[(1S,2S)-4,6-dichloro-2-(dimethylamino)-2,3-dihydro-1H-inden-1-yl]oxy]-5-fluoro-2-methylbenzene)sulfonamido]ethoxy]ethoxy)ethyl]carbamoyl]amino)butyl]urea] were “C (>70%)” and “C (NHE3 pIC50 > 7)”.
For `N#Cc1cc(Cl)cc2c1C[C@H](N1CCNCC1)[C@H]2Oc1ccc(S(=O)(=O)N2CCC(NC(=O)CCCNC(=O)NCCCCNC(=O)NCCCC(=O)NC3CCN(S(=O)(=O)c4ccc(O[C@H]5c6cc(Cl)cc(C#N)c6C[C@@H]5N5CCNCC5)cc4)CC3)CC2)cc1` [Example 120, N^1,N^18-Bis(1-([4-([(1S,2S)-6-chloro-4-cyano-2-(piperazin-1-yl)-2,3-dihydro-1H-inden-1-yl]oxy)phenyl]sulfonyl)piperidin-4-yl)-6,13-dioxo-5,7,12,14-tetraazaoctadecanediamide] the same measures were “C (>70%)” and “C (NHE3 pIC50 > 7)”.
As for `C[C@@H]1CN([C@H]2Cc3c(C#N)cc(Cl)cc3[C@@H]2Oc2ccc(S(=O)(=O)N[C@H]3CCN(CCOCCNC(=O)NCCCCNC(=O)NCCOCCN4CC[C@H](NS(=O)(=O)c5ccc(O[C@H]6c7cc(Cl)cc(C#N)c7C[C@@H]6N6CCN[C@H](C)C6)cc5)C4)C3)cc2)CCN1` [Example 132, 4-([(1S,2S)-6-Chloro-4-cyano-2-[(R)-3-methylpiperazin-1-yl]-2,3-dihydro-1H-inden-1-yl]oxy)-N—[(S)-1-(20-[(S)-3-([4-([(1S,2S)-6-chloro-4-cyano-2-[(R)-3-methylpiperazin-1-yl]-2,3-dihydro-1H-inden-1-yl]oxy)phenyl]sulfonamido)pyrrolidin-1-yl]-7,14-diaxo-3,18-dioxa-5,8,13,15-tetraazaicosyl)pyrrolidin-3-yl]benzenesulfonamide; bis(trifluoroacetic acid)], the “% inhibition” value was “C (>70%)” and the pIC50 entry is “C (NHE3 pIC50 > 7)”.
For `C[C@@H]1CN([C@H]2Cc3c(C#N)cc(Cl)cc3[C@@H]2Oc2ccc(S(=O)(=O)N[C@@H]3CCN(CCOCCNC(=O)NCCCCNC(=O)NCCOCCN4CC[C@@H](NS(=O)(=O)c5ccc(O[C@H]6c7cc(Cl)cc(C#N)c7C[C@@H]6N6CCN[C@H](C)C6)cc5)C4)C3)cc2)CCN1` [Example 133, 4-([(1S,2S)-6-Chloro-4-cyano-2-[(R)-3-methylpiperazin-1-yl]-2,3-dihydro-1H-inden-1-yl]oxy)-N—[(R)-1-(20-[(R)-3-([4-([(1S,2S)-6-chloro-4-cyano-2-[(R)-3-methylpiperazin-1-yl]-2,3-dihydro-1H-inden-1-yl]oxy)phenyl]sulfonamido)pyrrolidin-1-yl]-7,14-dioxo-3,18-dioxa-6,8,13,15-tetraazaicosyl)pyrrolidin-3-yl]benzenesulfonamide; bis(trifluoroacetic acid)] the same measures were “C (>70%)” and “C (NHE3 pIC50 > 7)”.
`N#Cc1cc(Cl)cc2c1C[C@H](N1CCNCC1)[C@H]2Oc1ccc(S(=O)(=O)N[C@H]2CCN(C(=O)CCCNC(=O)NCCCCNC(=O)NCCCC(=O)N3CC[C@H](NS(=O)(=O)c4ccc(O[C@H]5c6cc(Cl)cc(C#N)c6C[C@@H]5N5CCNCC5)cc4)C3)C2)cc1` [Example 143, 4-([(1S,2S)-6-Chloro-4-cyano-2-(piperazin-1-yl)-2,3-dihydro-1H-inden-1-yl]oxy)-N—[(S)-1-(18-[(S)-3-([4-([(1S,2S)-6-chloro-4-cyano-2-(piperazin-1-yl)-2,3-dihydro-1H-inden-1-yl]oxy)phenyl]sulfonamido)pyrrolidin-1-yl]-6,13,18-trioxo-5,7,12,14-tetraazaoctadecanoyl)pyrrolidin-3-yl]benzenesulfonamide]: the “% inhibition” value is reported as “C (>70%)” and the pIC50 entry is “C (NHE3 pIC50 > 7)”.
